Measurements published in patent US12319913B2, “5-halouracil-modified microRNAs and their use in the treatment of cancer” (The Research Foundation for The State University of New York, priority 2018, dated 2025).

Key:
[1] = test system: MDA-MB-231 breast cancer cells; experiment: Cell cycle analysis, MDA-MB-231 breast cancer cells; type: cell-based, human; details: compared to native exogenous microRNAs or NC
Description: Cell cycle analysis: Twenty-four hours after transfection, cells were harvested and resuspended at 0.5 to 1×10^6 cells/mL in modified Krishan's buffer supplemented with 0.02 mg/mL RNase H and 0.05 mg/mL propidium iodide. Stained cells were detected by flow cytometry and results were analyzed with Modfit LT™ software. The experiments for cell cycle analysis were performed at least three times.

[2] = test system: MDA-MB-231 triple negative breast cancer cells; experiment: MTT cell proliferation, MDA-MB-231, with or without oligofectamine; type: cell-based, human
Description: For transfections, 1×10^5 cells were plated in six-well plates and transfected with 100 nM of control non-specific miRNA (Thermo Fischer), a modified microRNA, or exogenous native microRNA after 24 hours using Oligofectamine (Thermo Fischer) following the manufacturer's protocols. For reagent free transfection, cells were plated in 6 well plates at (1×10^5) cells per well. Twenty-four hours later 100 pmol miRNA (Control, miR-15a, Mimic-1) were diluted in Optimem (Thermo Fischer) and added to the plate. Media was changed after 24 hours. Media was supplemented with 10% fetal bovine serum (Thermo Fischer). Briefly, cells were cultured in growth media (DMEM/F12 supplemented with B27, 10 ng/mL bFGF, and 20 ng/mL EGF (Life Technologies) in ultra-low attachment flasks) for up to 6 days. The spheroid cells were maintained by collection through gentle centrifugation, dissociation to single cells and replating.
Furthermore, to test whether or not the modified microRNAs of the present disclosure can be delivered directly to cells and taken up by the cancer cells without the use of transfer agents or vehicles (i.e., oligofectamine), MDA-MB-231 triple negative breast cancer cells were transfected with miR-NC (negative control), exogenous unmodified miR-200b or miR-489, 5-FU-miR-200b or modified miR-489 by using oligofectamine or without delivery vehicle. As shown in FIGS. 17A-17B and 20A, the effects of expression of the exemplary modified miRs tested on breast cancer cell proliferation were monitored by MTT assay for 6 days upon transfection or incubation.

TS-FdUMP = biological target: T1, TS-FdUMP (Homo sapiens, UniProt P04818); experiment: Western blot of TS / TS-FdUMP in MDA-MB-231 cells; type: cell-based; details: breast cancer cells, FIG. 21B
T1 construct: endogenous in cells
T1 sequence (P04818 2-313 limits assumed): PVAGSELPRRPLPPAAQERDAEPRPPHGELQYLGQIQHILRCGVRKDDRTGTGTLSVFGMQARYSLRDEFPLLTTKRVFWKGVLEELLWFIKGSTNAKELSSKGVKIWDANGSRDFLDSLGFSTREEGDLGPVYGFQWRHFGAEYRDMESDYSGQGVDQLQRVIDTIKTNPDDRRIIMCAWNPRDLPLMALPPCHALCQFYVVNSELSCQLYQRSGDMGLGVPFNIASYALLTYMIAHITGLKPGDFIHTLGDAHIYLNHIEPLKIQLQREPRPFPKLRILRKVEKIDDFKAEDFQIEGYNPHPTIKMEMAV
Description: (§1) Western immunoblot analysis: Forty-eight hours after transfection, equal amounts of protein (15 μg) extracted from cells lysed in RIPA buffer with protease inhibitor (Sigma) and were separated on 10%-12% sodium dodecyl sulfate-polyacrylamide gels using standard procedures. The primary antibodies used for the analysis were rabbit anti-YAP1 monoclonal antibody (1:10000) (Cell Signaling Technologies), anti-DLCK1 (1:500) (Abcam), anti-BCL2 (1:500) (NeoMarkers), anti-MDC1 (1:500), anti-SUZ12 (1:500), anti-pChk-1 (1:500), anti beta-actin (1:500), anti-BMI-1 (1:10000) (Cell Signaling Technologies), mouse anti-human TS antibody (1:500), anti-α-tubulin (1:50000) (Santa Cruz Biotech Inc.), anti-GAPDH (1:100000) (Santa Cruz Biotech Inc.), anti-E2F3 (1:500) (Santa Cruz Biotech Inc.), Horseradish peroxidase-conjugated antibodies against mouse or rabbit (1:5000, Santa Cruz Biotech Inc.) were used as the secondary antibodies. Protein bands were visualized with autoradiography film using SuperSignal West Pico Chemiluminescent Substrate (Thermo Fischer). Western blot density was quantified using Image J software.

MDC1 and SUZ12 = experiment: Western blot of MDC1 and SUZ12 in triple negative breast cancer cells; type: cell-based, human
Description: as §1

[3] = test system: MDA-MB-231 breast cancer cells; experiment: Triple negative breast cancer xenograft mouse model (MDA-MB-231, tail vein); type: in vivo; details: intravenous, every other day for 17 days, vs negative control and native miR-489
Description: Modified miR-489 inhibits breast cancer development and progression in vivo. A triple negative breast cancer xenograft mouse model was developed by tail vein injection of MDA-MB-231 breast cancer cells and tumors were developed over time. Mice were then injected with modified miR-489 composition having the nucleotide sequence set forth in SEQ ID NO: 32, exogenous native miR-489, or negative control miRNA by intravenous injection with treatment frequency of one injection every other day for 17 days and mice were euthanized and tumors size was measured using imaging techniques.

CGACGGCAU^FAU^FACACU^FACAGU^FG (CGACGGCAUAUACACUACAGUG; 5-fluorouracil replacing uracils, chemistry not fully specified) [modified miR-489]
sub G1 and G1/S ratio [1]: significantly increase
cell proliferation without delivery vehicle (no oligofectamine) ([2]; MDA-MB-231, MTT assay): effectively reduced cell proliferation
cell proliferation in the presence of oligofectamine ([2]; MDA-MB-231, MTT assay for 6 days, vs miR-NC): dramatically reduced the cell growth from day 3
expression of TS protein (TS-FdUMP): reduces the expression, and thus activity of TS protein
MDC1 and SUZ12 protein expression without a transfection reagent (MDC1 and SUZ12; MDA-MB-231, no oligofectamine): inhibits MDC1 and SUZ12 protein expression
MDC1 and SUZ12 protein expression (MDC1 and SUZ12; triple negative breast cancer cells, western blot): further reduction of SUZ12 and MDC1
tumor size [3]: drastic reduction in tumor size
